These results are taken from patent US11185100B2 (priority 2014, dated 2021).

Common to all, as to assay type: cell-based, cat
For series [1], the target named is T1, T1R1/T1R3 receptor (Felis catus, UniProt E3UMS2). Description: PAM screening of transmembrane compounds with GMP and Ala on T1R1/T1R3 in HEK293 cells (Example 8). To be noted: for T1R1/T1R3 PAM: transmembrane compound at 0.01, 0.1 and 1 mM with GMP + Ala mixtures (T1-T4), PAM if response greater than sum of compound alone and GMP+Ala alone. The source says: PAM Screening Method: HEK293 cells that stably express T1R3 and inducibly express T1R1 were exposed to transmembrane compound alone or in combination with Ala and GMP to activate the umami receptor. Activation of the T1R1/T1R3 receptor was detected by a change in intracellular calcium levels using a calcium sensitive fluorescent dye and/or a luminescent reporter system. […] A FLIPR® Tetra or a FlexStation® 3 was used for data capture.
Dose response curves were generated for each transmembrane compound at concentrations of 0 (buffer only), 0.01, 0.1 and 1 mM, wherein each of the three concentrations of transmembrane compound was tested in combination with 0.03 mM GMP+100 mM Ala (T1); 0.6 mM GMP+10 mM Ala (T2); 0.1 mM GMP+60 mM Ala (T3) and 0.3 mM GMP+60 mM Ala (T4). The T4 mixture was also tested in a 2-fold dilution series (the T4(X) Concentration). In these experiments, the first test concentration was 2× (2 times) the T4 concentration. The subsequent test concentrations were 2-fold dilutions from that (1×, 0.5× etc.). This dilution series was tested with or without the addition of the test compound at a constant 0.3 mM concentration.
Activation of the umami receptor was also determined in the presence of 1 mM GMP+100 mM Ala to generate a “maximum” umami receptor activation level.

The target in series [2] is T1, T1R1/T1R3 receptor. Kind of series: Agonist screening of transmembrane compounds on T1R1/T1R3 in HEK293 cells (Example 8). To be noted: for T1R1/T1R3 agonist: transmembrane compound tested at 0.01, 0.1 and 1 mM, HEK293 cells expressing T1R1/T1R3, calcium readout. The protocol: Agonist Screening Method: HEK293 cells that stably express T1R3 and inducibly express T1R1 were exposed to a transmembrane compound. Activation of the T1R1/T1R3 receptor was detected by a change in intracellular calcium levels using a calcium sensitive fluorescent dye and/or a luminescent reporter system. […] A FLIPR® Tetra or a FlexStation® 3 was used for data capture.
Each transmembrane compound was tested at concentrations of 0.01 mM, 0.1 mM, and 1 mM. […] To generate the dose response curves, the transmembrane compound was tested at concentrations of between 0.0001 mM and 1.0 mM in the presence of GMP and Ala.

The target in series [3] is T1, T1R1/T1R3 receptor. Kind of series: Activation of T1R1/T1R3 receptor by transmembrane compounds alone or with alanine, IMP, GMP, phenylalanine; HEK293 cells, calcium fluorescence (Example 5). A digest of the protocol: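 HEK293 cells stably expressing feline T1R3 with inducible T1R1 treated with serial dilutions (up to 10 mM) of transmembrane compounds, alone or combined with amino acids and/or nucleotides. Activation read as intracellular calcium change via calcium-sensitive fluorescent dye; T1R3-only cells served as control.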

Where “and” joins values, the source holds several entries; their conditions need not be identical. Equal entries are not always repeated. Structures can show the parent of a compound that is named as a salt.

On to `COC(=O)[C@H](CC(C)C)NCc1ccccc1.Cl` [Benzyl-L-leucine methyl ester hydrochloride], for which the “PAM profile assessment (activation of T1R1/T1R3 in the presence of GMP and Alanine)” value (“PAM profile assessment” below) in series [1] is reported as “PAM activity”. Also, in series [2], the “agonist profile assessment (activation of T1R1/T1R3 by the compound alone)” value (“agonist profile assessment” below) is on record as “agonist”.
In the case of `O=C(CN1C(=O)C(=O)N(Cc2ccccc2)C1=O)c1ccc2c(c1)OCCCO2` [Formula 8, 1-benzyl-3-(2-(3,4-dihydro-2H-benzo[b][1,4]dioxepin-7-yl)-2-oxoethyl)imidazolidine-2,4,5-trione], the “T1R1/T1R3 PAM” value in series [1] was “Weak PAM”. Moreover, in series [2], the T1R1/T1R3 agonist entry is reported as “No”.
On the same counts, the results for `N#Cc1cccc(NC(=O)CN2C(=O)C(=O)N(Cc3ccccc3)C2=O)c1` [Formula 9, 2-(3-benzyl-2,4,5-trioxoimidazolidin-1-yl)-N-(3-cyanophenyl)acetamide] are “No” and “No”.
For the compound `O=C(CN1C(=O)C(=O)N(Cc2ccccc2)C1=O)c1ccc2c(c1)CCC2` [Formula 2, 1-benzyl-3-(2-(2,3-dihydro-1H-inden-5-yl)-2-oxoethyl)imidazolidine-2,4,5-trione], in series [1], the “T1R1/T1R3 PAM” value is “No”. Besides, in series [2], the T1R1/T1R3 agonist entry is recorded as “No”.
As for `COC(=O)[C@H](CC(C)C)NCc1ccccc1.Cl` [Formula 18, Benzyl-L-leucine methyl ester hydrochloride], in series [1], the “T1R1/T1R3 PAM” value is reported as “Yes”. For the same compound, in series [2], the T1R1/T1R3 agonist entry is on record as “Yes”.
Consider `COc1ccc(C(=O)CN2C(=O)C(=O)N(Cc3ccccc3)C2=O)c(OC)c1` [Formula 5, 1-benzyl-3-(2-(2,4-dimethoxyphenyl)-2-oxoethyl)imidazolidine-2,4,5-trione], for which the “T1R1/T1R3 PAM” value in series [1] is listed as “No”. In series [2], the T1R1/T1R3 agonist entry is “No”.
With `Cl.N[C@@H](Cc1ccccc1)C(=O)OCc1ccccc1` [Formula 20, L-Phenylalanine benzyl ester hydrochloride], the “T1R1/T1R3 PAM” value in series [1] is given as “Yes”. Moreover, the T1R1/T1R3 agonist entry in series [2] was “Yes”.
As to `COC(=O)C(NCc1ccccc1)c1ccccc1` (stereo not shown) [Methyl-2-benzylamino-2-phenylacetate], the “PAM profile assessment” value in series [1] was “PAM activity”. The “agonist profile assessment” value in series [2] is recorded as “agonist”.
Consider `O=C(CN1C(=O)C(=O)N(Cc2ccccc2)C1=O)c1ccc(Br)cc1` [Formula 3, 1-benzyl-3-(2-(4-bromophenyl)-2-oxoethyl)imidazolidine-2,4,5-trione], for which the “T1R1/T1R3 PAM” value in series [1] was “No”. Besides, the T1R1/T1R3 agonist result in series [2] was “No”.
On to `COC(=O)[C@@H](Cc1ccccc1)NCc1ccccc1.Cl` [Formula 16, N-Benzyl-D-Phenylalanine methyl ester hydrochloride], for which, in series [1], the “T1R1/T1R3 PAM” value is listed as “Yes”. For the same compound, in series [2], the T1R1/T1R3 agonist result was “Yes”.
In the case of `N[C@@H](Cc1ccc(O)cc1)C(=O)OCc1ccccc1` [Formula 21, L-Tyrosine benzyl ester], in series [1], the “T1R1/T1R3 PAM” value was “No”. Besides, the T1R1/T1R3 agonist result in series [2] is “No”.
On to `COC(=O)[C@H](Cc1ccccc1)NCc1ccccc1` [Formula 15, N-Benzyl-L-phenylalanine methyl ester hydrochloride], for which the “T1R1/T1R3 PAM” value in series [1] is on record as “Yes”. The T1R1/T1R3 agonist entry in series [2] was “Yes”.
`COC(=O)[C@@H](Cc1ccccc1)NCc1ccccc1.Cl` [N-Benzyl-D-Phenylalanine methyl ester hydrochloride]: the “PAM profile assessment” value in series [1] is reported as “PAM activity”. Further, the “agonist profile assessment” value in series [2] is on record as “agonist”.
For `O=C1CC(=O)N(Cc2ccccc2)C(=O)N1Cc1ccccc1` [Formula 24, 1,3-dibenzylpyrimidine-2,4,6(1H,3H,5H)-trione], in series [1], the “T1R1/T1R3 PAM” value is on record as “No”. Besides, the T1R1/T1R3 agonist result in series [2] is on record as “Yes”.
The like results for `Cc1ccc(CNC(Cc2ccccc2)C(=O)O)cc1` (stereo not shown) [Formula 23, 2-((4-methylbenzyl)amino)-3-phenylpropanoic acid] were, in that order, “No” and “No”.
On to `CCCC(CCC)NC(=O)c1ccc2c(c1)OCO2` [N-(heptan-4-yl)benzo[d][1,3]dioxole-5-carboxamide], for which, in series [1], the “PAM profile assessment” value is “PAM activity”. In addition, in series [3] (+Alanine (20 mM)), the “+Alanine (20 mM) Max resp % of IMP” value is 142.7 % of IMP and 118.2 % of IMP; the “+Alanine (20 mM) Max resp ΔF/F” value was 1.7725 ΔF/F and 1.2 ΔF/F. Moreover, the “Max resp % of IMP +Alanine (20 mM)” value in series [3] (+Alanine (20 mM), relative to IMP) was 118.2% and 142.7%. Besides, in series [3] (+IMP (0.2 mM)), the “+IMP (0.2 mM) Max resp % of Ala” value is 119.6 % of Ala and 165.8 % of Ala; the “+IMP (0.2 mM) Max resp ΔF/F” value was 1.4725 ΔF/F; the “Max resp ΔF/F +IMP (0.2 mM)” value was 1.393 ΔF/F and 1.473 ΔF/F. For the same compound, the “Max resp % of Ala +IMP (0.2 mM)” value in series [3] (+IMP (0.2 mM), relative to Ala) was 165.8% and 119.6%. Further, in series [3] (Table 18, all transmembrane compounds tested, active / N/A (not active)), the outcome was active. The “ΔF/F0 of ternary mixture with phenylalanine and GMP compared to phenylalanine and GMP without the agonist” value in series [3] (with phenylalanine and GMP) was “approximately 10 ×”. Besides, the “agonist profile assessment” value in series [2] is on record as “agonist”.
Take `O=C(CN1C(=O)C(=O)N(Cc2ccccc2)C1=O)c1ccc(Cl)s1` [Formula 12, 1-benzyl-3-(2-(5-chlorothiophen-2-yl)-2-oxoethyl)imidazolidine-2,4,5-trione]: the “T1R1/T1R3 PAM” value in series [1] is recorded as “Weak PAM”. For the same compound, in series [2], the T1R1/T1R3 agonist result is “No”.
The like results for `COc1ccccc1C(=O)CN1C(=O)C(=O)N(Cc2cccs2)C1=O` [Formula 10, 1-(2-(2-methoxyphenyl)-2-oxoethyl)-3-(thiophen-2-ylmethyl)imidazolidine-2,4,5-trione] were, in that order, “No” and “No”.
For the compound `O=C(O)[C@H](Cc1ccc(O)cc1)NCc1ccccc1` [Formula 22, N-Benzyl-L-Tyrosine], the “T1R1/T1R3 PAM” value in series [1] is “No”. Further, the T1R1/T1R3 agonist entry in series [2] is recorded as “No”.
In the case of `Cl.N[C@@H](Cc1ccccc1)C(=O)OCc1ccccc1` [L-Phenylalanine benzyl ester hydrochloride], in series [1], the “PAM profile assessment” value is given as “PAM activity”. In addition, the “agonist profile assessment” value in series [2] is “agonist”.
Regarding `CCCC(CCC)NC(=O)c1ccc2c(c1)OCO2` [Formula 14, N-(heptan-4-yl)benzo[d][1,3]dioxole-5-carboxamide], in series [1], the “T1R1/T1R3 PAM” value was “Yes”. For the same compound, the T1R1/T1R3 agonist result in series [2] is on record as “Yes”.
For the compound `O=C(CN1C(=O)C(=O)N(Cc2ccccc2)C1=O)c1ccc2c(c1)OCCO2` [Formula 4, 1-benzyl-3-(2-(2,3-dihydrobenzo[b][1,4]dioxin-6-yl)-2-oxoethyl)imidazolidine-2,4,5-trione], the “T1R1/T1R3 PAM” value in series [1] was “No”. Further, the T1R1/T1R3 agonist entry in series [2] is reported as “No”.
For the compound `O=C(CN1C(=O)C(=O)N(CCc2cccs2)C1=O)c1ccccc1` [Formula 6, 1-(2-oxo-2-phenylethyl)-3-(2-(thiophen-2-yl)ethyl)imidazolidine-2,4,5-trione], the “T1R1/T1R3 PAM” value in series [1] was “No”. For the same compound, in series [2], the T1R1/T1R3 agonist result is “No”.
In the case of `O=C1C(=O)N(Cc2ccccc2)C(=S)N1Cc1ccccc1` [Formula 13, 1,3-dibenzyl-2-thioxoimidazolidine-4,5-dione], the “T1R1/T1R3 PAM” value in series [1] was “No”. Moreover, the T1R1/T1R3 agonist result in series [2] was “No”.
Take `O=C(CN1C(=O)C(=O)N(Cc2ccccc2)C1=O)c1ccccc1` [Formula 1, 1-benzyl-3-(2-oxo-2-phenylethyl)imidazolidine-2,4,5-trione]: in series [1], the “T1R1/T1R3 PAM” value is listed as “No”. In series [2], the T1R1/T1R3 agonist entry is reported as “No”.
`O=C(CN1C(=O)C(=O)N(CCc2cccs2)C1=O)c1ccc2c(c1)OCO2` [Formula 7, 1-(2-(benzo[d][1,3]dioxol-5-yl)-2-oxoethyl)-3-(2-(thiophen-2-yl)ethyl)imidazolidine-2,4,5-trione]: the “T1R1/T1R3 PAM” value in series [1] is reported as “No”. In addition, in series [2], the T1R1/T1R3 agonist entry was “No”.
